Test results from patent publication US20140357602A1, “Combination Therapies For Treating Metabolic Disorders” (Genmedica Therapeutics SL, priority 2009, published 2014).

Key:
[1] = test system: alloxan-treated cd-1 mice; experiment: Alloxan induced beta cell destruction model (in vivo β-cell protection)
Method: In Vivo β-Cell Protection Model β-cell destruction was induced in cd-1 male mice after 3 hours of fasting by a single intra-peritoneal (i.p.) injection of a freshly prepared solution of alloxan 200 mg/kg (Sigma-Aldrich, San Luis, Mo.) that was dissolved in NaCl 0.9%. One single intra-peritoneal drug administration was given one hour before the Alloxan administration. […] At the end of the treatment, day 4, animals were sacrificed and the plasma collected and kept at −20° C. until used.
Pancreatic beta cell destruction was induced in the cd-1 mice after 3 hours of fasting by a single intraperitoneal injection of a freshly prepared solution of alloxan 200 mg/kg (Sigma-Aldrich, San Luis, Mo.) that was dissolved in NaCl 0.9%. Single drug intraperitoneal administration was 1 hour before the alloxan administration. […] The control group was injected with the vehicle, PBS at pH 7.4. Glycemia was measured on arterio-venous blood collected from the tail vessels between 9:00 and 10:00 am on day 0 (day of drug administration) to day 4.

islets = conditions: low-dose streptozotocin-induced insulitis; cited from earlier work
INS-1E β-cells = experiment: In vitro INS-1E β-cell assay (apoptosis, caspase 3/7); format: cell-based; conditions: apoptosis promoted by high (11 mM) glucose and high (0.4 mM) palmitate
Method: INS-1E β-cells were cultivated in the presence of a high glucose concentration (11 mM) and a high palmitate concentration (0.4 mM bound to BSA 0.5%) in order to promote glucotoxicity and lipotoxicity. […] The capacity of protecting β-cells with different combinations of antioxydants and anti-inflammatory agents were tested using these stressing conditions that reflect the pathophysiological conditions implicated in pancreatic dysfunction related to diabetes onset. INS-1E cells were seeded at a density of 80,000 cells/cm^2 in 96 wells plates 4 days before the beginning of the treatment. At 60-80% of confluence, cells were fasted with RPMI 5 mM of glucose+FBS 10%. […] The day after, fasting medium was changed by the stressing medium (glucose […]+palmitate 0.4 mM bound to BSA 0.5%). Medium, and tested agents when present, were changed every 24 h. 48 h after the addition of the stressing medium, apoptosis was measured with Apo-One Homogeneous Caspase 3/7 Assay (Promega) which determines the activity of caspase 3 and 7. […] Resulting fluorescence was read at 485/530 (excitation/emission wave length). The background apoptosis, in absence of stressing condition, was determined with INS 1E-cells cultured in the presence of fasting medium (RPMI 5 mM glucose+FBS 10%). […]

[2] = test system: type II diabetes patients; conditions: cited from earlier work
[3] = type II diabetes patients, 4 grams/day

Q: Which results are given for `CC(=O)N[C@@H](CS)C(=O)O` [N-acetylcysteine]?
A: glycemia ([1]; FIG. 3, NAC alone i.p. 0.38 and 0.75 mmol/kg): significant reductions of glycemia were observed only at the highest administered concentrations; insulinemia ([1]; FIG. 3, NAC alone i.p., highest concentrations administered): significantly increased; glycemia ([1]; NAC alone 0.19 mmol/kg i.p.): not to affect glycemia; glycemia ([1]; NAC alone 0.38 mmol/kg): statistically-significant reductions in glycemia; protection of islets from immune destruction (islets): partially protect

Q: For `NCCS(=O)(=O)O` [Taurine], which “Combination concentrations (concentrations that reduced apoptosis)” value (INS-1E β-cells) is on record?
A: 3 mM

Q: For `O=C(Oc1ccccc1C(=O)O)c1ccccc1O` [salsalate], which fasting glucose [2, 3] is on record?
A: lowered

Q: What about the inflammation [2, 3] of the same compound?
A: reduced

Q: Which glucose levels ([2]; patients with diabetes, high dosage) does the source give for `CC(=O)Oc1ccccc1C(=O)O` [aspirin] here?
A: lower

Q: With `Cc1c(C)c2c(c(C)c1O)CC[C@@](C)(CCC[C@H](C)CCC[C@H](C)CCCC(C)C)O2` [α-tocopherol] as the compound, how does the “Combination concentrations (concentrations that reduced apoptosis)” value (INS-1E β-cells) read?
A: 1 mM

Q: What does the source list for `O=C([O-])c1ccccc1O.[Na+]` [Salicylate, Sodium Salicylate]?
A: glycemia ([1]; FIG. 3, salicylate alone i.p. 0.38, 0.75 and 1.5 mmol/kg): significant reductions of glycemia were observed only at the highest administered concentrations; glycemia ([1]; sodium salicylate alone 0.38 mmol/kg i.p.): not to affect glycemia; glycemia ([1]; sodium salicylate alone 0.75 mmol/kg): statistically-significant reductions in glycemia

Q: Which “protection of islets from immune destruction” value (islets) does the source give for `NC(=O)c1cccnc1` [nicotinamide] here?
A: partially protect

Q: For `CC(=O)N(O)CCCCCNC(=O)CCC(=O)N(O)CCCCCNC(=O)CCC(=O)N(O)CCCCCN` [desferrioxamine], which “protection of islets from immune destruction” value (islets) is on record?
A: partially protect
